Results on 30 compounds are retold here after US8686150B2 (Sanofi, priority 2011, dated 2014).

What is called % Inhibition is the relative decrease from the control value, in per cent. A word on the inhibition: it is the relative decrease from the control value, in per cent.

The test deals with T1, human full-length recombinant PKC βII (Homo sapiens, UniProt P05771).
T1 construct: Active human full-length recombinant PKC βII; purchased Invitrogen GmbH, Darmstadt, Germany
T1 sequence (P05771 1-673 isoform P05771-2): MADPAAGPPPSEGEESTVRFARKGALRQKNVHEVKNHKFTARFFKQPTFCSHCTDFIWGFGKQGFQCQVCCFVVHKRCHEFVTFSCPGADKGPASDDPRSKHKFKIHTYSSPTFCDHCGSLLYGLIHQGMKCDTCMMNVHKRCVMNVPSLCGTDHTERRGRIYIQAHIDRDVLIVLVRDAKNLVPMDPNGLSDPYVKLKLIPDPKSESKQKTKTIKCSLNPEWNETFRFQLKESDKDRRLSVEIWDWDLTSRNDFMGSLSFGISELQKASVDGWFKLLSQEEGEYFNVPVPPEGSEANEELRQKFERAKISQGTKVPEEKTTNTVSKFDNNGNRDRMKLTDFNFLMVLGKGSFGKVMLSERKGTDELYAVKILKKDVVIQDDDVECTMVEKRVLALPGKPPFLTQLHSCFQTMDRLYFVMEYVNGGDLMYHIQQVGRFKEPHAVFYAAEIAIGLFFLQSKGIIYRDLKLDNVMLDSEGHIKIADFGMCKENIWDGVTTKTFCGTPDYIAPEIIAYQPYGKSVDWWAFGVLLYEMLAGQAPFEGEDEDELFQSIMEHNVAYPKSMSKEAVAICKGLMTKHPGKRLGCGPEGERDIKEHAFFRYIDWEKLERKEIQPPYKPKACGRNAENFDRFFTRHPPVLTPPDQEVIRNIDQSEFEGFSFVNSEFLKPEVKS
As to the kind of experiment: Determination of PKC βII inhibition (Caliper mobility-shift kinase assay, Fluorescein-RFARKGSLRQKNV peptide substrate). It is filed as biochemical. As to conditions: example compounds at a final concentration of 1.14 μM (±0.15 μM). The essentials:
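Full-length PKC βII (30 ng/ml in pre-dilution) with PS/DAG/Ca2+ activators, pH 7.4; fluorescein peptide and ATP at 3 μM and 120 μM before mixing. Reaction ran 60 min at 32 °C, was EDTA-stopped, and was read by mobility shift. % inhibition came from product/(substrate+product) peak heights, tested at 1.14 μM final.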
With `Cc1n[nH]c2nc(-c3ccc(O)cc3F)cc(C(=O)N3C[C@@H](c4ccccc4)NC[C@@H]3C)c12` (single isomer, unassigned) [Example 460, [6-(2-Fluoro-4-hydroxy-phenyl)-3-methyl-1H-pyrazolo[3,4-b]pyridin-4-yl]-(trans-2-methyl-5-phenyl-piperazin-1-yl)-methanone], the “% Inhibition” value is recorded as 61%.

For the compound `Cc1n[nH]c2nc(-c3ccc(O)c(F)c3)cc(C(=O)NCC(C)(C)CN)c12` [Example 363, 6-(3-Fluoro-4-hydroxy-phenyl)-3-methyl-1H-pyrazolo[3,4-b]pyridine-4-carboxylic acid (3-amino-2,2-dimethyl-propyl)-amide], the inhibition at 1.14 µM was found to be 72%.

For the compound `Cc1n[nH]c2nc(-c3ccc(O)cc3)cc(C(=O)N3CCN(C(=O)c4ccoc4)CC3)c12` [Example 380, [4-(Furan-3-carbonyl)-piperazin-1-yl]-[6-(4-hydroxy-phenyl)-3-methyl-1H-pyrazolo[3,4-b]pyridin-4-yl]-methanone], the inhibition at 1.14 µM was determined as 83%.

On to `Cc1n[nH]c2nc(-c3ccc(O)cc3)cc(C(=O)NCC3CNC3)c12` [Example 98, 6-(4-Hydroxy-phenyl)-3-methyl-1H-pyrazolo[3,4-b]pyridine-4-carboxylic acid (azetidin-3-ylmethyl)-amide], for which the inhibition at 1.14 µM amounted to 89%.

For `Cc1n[nH]c2nc(-c3cc(F)c(O)c(F)c3)cc(C(=O)N3CCNCC3)c12` [Example 12, [6-(3,5-Difluoro-4-hydroxy-phenyl)-3-methyl-1H-pyrazolo[3,4-b]pyridin-4-yl]-piperazin-1-yl-methanone], the inhibition at 1.14 µM was 61%.

On to `Cc1n[nH]c2nc(-c3ccc(O)cc3F)cc(C(=O)NCC3(N)CCCCCC3)c12` [Example 61, 6-(2-Fluoro-4-hydroxy-phenyl)-3-methyl-1H-pyrazolo[3,4-b]pyridine-4-carboxylic acid (1-amino-cycloheptylmethyl)-amide], for which the inhibition at 1.14 µM was 92%.

On to `Cc1n[nH]c2nc(-c3ccc(O)cc3)cc(C(=O)NC3CC4(CCNCC4)c4ccccc43)c12` (stereo not drawn) [Example 373, 6-(4-Hydroxy-phenyl)-3-methyl-1H-pyrazolo[3,4-b]pyridine-4-carboxylic acid (2,3-dihydro-spiro[1H-indene-1,4′-piperidin]-3-yl)-amide], for which the inhibition at 1.14 µM is 96%.

`Cc1cc(O)ccc1-c1cc(C(=O)N2CCNC[C@@H]2C)c2c(C)n[nH]c2n1` [Example 17, [6-(4-Hydroxy-2-methyl-phenyl)-3-methyl-1H-pyrazolo[3,4-b]pyridin-4-yl]-((S)-2-methyl-piperazin-1-yl)-methanone]: the inhibition at 1.14 µM was 95%.

For `Cc1n[nH]c2nc(-c3ccc(O)cc3F)cc(C(=O)N3CC(C)(C)NCC3C)c12` (stereo not drawn) [Example 427, [6-(2-Fluoro-4-hydroxy-phenyl)-3-methyl-1H-pyrazolo[3,4-b]pyridin-4-yl]-(2,5,5-trimethyl-piperazin-1-yl)-methanone], the inhibition at 1.14 µM stood at 99%.

As for `Cc1n[nH]c2nc(-c3ccc(O)cc3)cc(C(=O)N3CCNCC3c3cccc(C(F)(F)F)c3)c12` (stereo not drawn) [Example 99, [6-(4-Hydroxy-phenyl)-3-methyl-1H-pyrazolo[3,4-b]pyridin-4-yl]-[2-(3-trifluoromethyl-phenyl)-piperazin-1-yl]-methanone], the inhibition at 1.14 µM is 97%.

`CCc1n[nH]c2nc(-c3ccc(O)cc3)cc(C(=O)N[C@H]3CNC[C@@H]3OC)c12` [Example 161, 3-Ethyl-6-(4-hydroxy-phenyl)-1H-pyrazolo[3,4-b]pyridine-4-carboxylic acid ((3S,4S)-4-methoxy-pyrrolidin-3-yl)-amide]: the inhibition at 1.14 µM amounted to 77%.

As for `CCN1CCCN(C(=O)c2cc(-c3ccc(O)c(F)c3)nc3[nH]nc(C)c23)CC1` [Example 366, (4-Ethyl-[1,4]diazepan-1-yl)-[6-(3-fluoro-4-hydroxy-phenyl)-3-methyl-1H-pyrazolo[3,4-b]pyridin-4-yl]-methanone], the inhibition at 1.14 µM came to 47%.

As for `Cc1n[nH]c2nc(-c3ccc(O)cc3)cc(C(=O)NCC3CCC(=O)N3)c12` (stereo not drawn) [Example 278, 6-(4-Hydroxy-phenyl)-3-methyl-1H-pyrazolo[3,4-b]pyridine-4-carboxylic acid (5-oxo-pyrrolidin-2-ylmethyl)-amide], the inhibition at 1.14 µM stood at 68%.

Turning to `Cc1n[nH]c2nc(-c3ccc(O)c(F)c3)cc(C(=O)NC3CN4CCC3CC4)c12` (stereo not drawn) [Example 333, 6-(3-Fluoro-4-hydroxy-phenyl)-3-methyl-1H-pyrazolo[3,4-b]pyridine-4-carboxylic acid (1-aza-bicyclo[2.2.2]oct-3-yl)-amide], the inhibition at 1.14 µM worked out at 67%.

For the compound `Cc1n[nH]c2nc(-c3ccc(O)c(F)c3)cc(C(=O)N3CC4(CCNCC4)C3)c12` [Example 339, (2,7-Diaza-spiro[3.5]non-2-yl)-[6-(3-fluoro-4-hydroxy-phenyl)-3-methyl-1H-pyrazolo[3,4-b]pyridin-4-yl]-methanone], the inhibition at 1.14 µM is 73%.

For `CCC[C@@H]1CN(C(=O)c2cc(-c3ccc(O)cc3)nc3[nH]nc(C)c23)CCN1` [Example 195, [6-(4-Hydroxy-phenyl)-3-methyl-1H-pyrazolo[3,4-b]pyridin-4-yl]-((R)-3-propyl-piperazin-1-yl)-methanone], the inhibition at 1.14 µM worked out at 95%.

`Cc1n[nH]c2nc(-c3ccc(O)cc3)cc(C(=O)N3CCN(CCS(C)(=O)=O)CC3)c12` [Example 271, [6-(4-Hydroxy-phenyl)-3-methyl-1H-pyrazolo[3,4-b]pyridin-4-yl]-[4-(2-methanesulfonyl-ethyl)-piperazin-1-yl]-methanone]: the inhibition at 1.14 µM is 66%.

For `CCC1(NC(=O)c2cc(-c3ccc(O)cc3)nc3[nH]nc(C)c23)CCNCC1` [Example 49, 6-(4-Hydroxy-phenyl)-3-methyl-1H-pyrazolo[3,4-b]pyridine-4-carboxylic acid (4-ethyl-piperidin-4-yl)-amide], the inhibition at 1.14 µM came out at 97%.

`Cc1n[nH]c2nc(-c3ccc(O)cc3)cc(C(=O)NC3CNCC3C)c12` (stereo not drawn) [Example 43, 6-(4-Hydroxy-phenyl)-3-methyl-1H-pyrazolo[3,4-b]pyridine-4-carboxylic acid (4-methyl-pyrrolidin-3-yl)-amide]: the inhibition at 1.14 µM worked out at 81%.

For the compound `Cc1n[nH]c2nc(-c3ccc(O)c(F)c3)cc(C(=O)N3CCNC[C@H]3C(=O)NC(C)(C)C)c12` [Example 325, (S)-1-[6-(3-Fluoro-4-hydroxy-phenyl)-3-methyl-1H-pyrazolo[3,4-b]pyridine-4-carbonyl]-piperazine-2-carboxylic acid tert-butylamide], the inhibition at 1.14 µM is 76%.

On to `Cc1n[nH]c2nc(-c3ccc(O)c(F)c3)cc(C(=O)N3CCN[C@H](C)C3)c12` [Example 337, [6-(3-Fluoro-4-hydroxy-phenyl)-3-methyl-1H-pyrazolo[3,4-b]pyridin-4-yl]-((R)-3-methyl-piperazin-1-yl)-methanone], for which the inhibition at 1.14 µM was 93%.

With `Cc1n[nH]c2nc(-c3ccc(O)cc3)cc(C(=O)N3CCNC[C@@H]3Cc3ccccc3)c12` [Example 225, ((S)-2-Benzyl-piperazin-1-yl)-[6-(4-hydroxy-phenyl)-3-methyl-1H-pyrazolo[3,4-b]pyridin-4-yl]-methanone], the inhibition at 1.14 µM came to 85%.

`Cc1n[nH]c2nc(-c3ccc(O)cc3)cc(C(=O)N3CCC(CN)(c4ccccc4)CC3)c12` [Example 34, (4-Aminomethyl-4-phenyl-piperidin-1-yl)-[6-(4-hydroxy-phenyl)-3-methyl-1H-pyrazolo[3,4-b]pyridin-4-yl]-methanone]: the inhibition at 1.14 µM is 69%.

On to `CCc1n[nH]c2nc(-c3ccc(O)cc3)cc(C(=O)N3CCC4(CC3)CNC4)c12` [Example 171, (2,7-Diaza-spiro[3.5]non-7-yl)-[3-ethyl-6-(4-hydroxy-phenyl)-1H-pyrazolo[3,4-b]pyridin-4-yl]-methanone], for which the inhibition at 1.14 µM was found to be 77%.

In the case of `Cc1n[nH]c2nc(-c3ccc(O)c(F)c3)cc(C(=O)NCC3CCC(=O)N3)c12` (stereo not drawn) [Example 359, 6-(3-Fluoro-4-hydroxy-phenyl)-3-methyl-1H-pyrazolo[3,4-b]pyridine-4-carboxylic acid (5-oxo-pyrrolidin-2-ylmethyl)-amide], the inhibition at 1.14 µM turned out to be 36%.

Consider `Cc1ccc(C(CN)NC(=O)c2cc(-c3ccc(O)cc3)nc3[nH]nc(C)c23)cc1` (stereo not drawn) [Example 52, 6-(4-Hydroxy-phenyl)-3-methyl-1H-pyrazolo[3,4-b]pyridine-4-carboxylic acid (2-amino-1-p-tolyl-ethyl)-amide], for which the inhibition at 1.14 µM turned out to be 86%.

For the compound `O=C(c1cc(-c2ccc(O)cc2)nc2[nH]nc(C(F)(F)F)c12)N1CCC2(CCCNC2)C1` (stereo not drawn) [Example 407, (2,7-Diaza-spiro[4.5]dec-2-yl)-[6-(4-hydroxy-phenyl)-3-trifluoromethyl-1H-pyrazolo[3,4-b]pyridin-4-yl]-methanone], the inhibition at 1.14 µM is 20%.

As to `CCN1CCCC(NC(=O)c2cc(-c3ccc(O)c(F)c3)nc3[nH]nc(C)c23)C1` (stereo not drawn) [Example 332, 6-(3-Fluoro-4-hydroxy-phenyl)-3-methyl-1H-pyrazolo[3,4-b]pyridine-4-carboxylic acid (1-ethyl-piperidin-3-yl)-amide], the inhibition at 1.14 µM is 63%.

`O=C(c1cc(-c2ccc(O)cc2)nc2[nH]nc(C(F)(F)F)c12)N1CCC2(CC1)CNC2` [Example 405, (2,7-Diaza-spiro[3.5]non-7-yl)-[6-(4-hydroxy-phenyl)-3-trifluoromethyl-1H-pyrazolo[3,4-b]pyridin-4-yl]-methanone]: the inhibition at 1.14 µM was found to be 48%.

`Cc1n[nH]c2nc(-c3ccc(O)cc3)cc(C(=O)NCC3CCNC3)c12` (stereo not drawn) [Example 216, 6-(4-Hydroxy-phenyl)-3-methyl-1H-pyrazolo[3,4-b]pyridine-4-carboxylic acid (pyrrolidin-3-ylmethyl)-amide]: the inhibition at 1.14 µM was 92%.
